These results are taken from patent publication US6346260B1, “Microbicidal active ingredients” (Ciba Specialty Chemicals Corporation, priority 1999, dated 2002).

Holding throughout (format): cell-based
Assay [1] relates to Corynebacterium xerosis ATCC 373. Description: MIC in microtitre plates, Corynebacterium xerosis. Particulars: ATCC373, Table 1, 48 hours at 37° C., ≦20% growth. The procedure:
(§1) Determination of Antimicrobial Activity in Accordance with the Microtitre Plate Method Determination of the Minimum Inhibitory Concentration (MIC value) in Microtitre Plates casein-soybean flour-peptone bouillon for the preparation of the precultures of the test bacteria and yeast. Corynebacterium xerosis ATCC 373 The test substances are predissolved in dimethyl sulfoxide (DMSO) and tested in a dilution series of 1:2. Bacteria and yeast are cultured overnight in CASO bouillon, the mould on mycological slant agar and rinsed off with 10 ml of 0.85% sodium chloride solution (+0.1% TritonX-100). All test organisms are adjusted to an organism count of 1-5*10^6 CFU/ml with 0.85% sodium chloride solution. The test substances are prepipetted into microtitre plates in an amount of 8 μl per well. Previously diluted test organism suspensions are diluted 1:100 in CASO bouillon (bacteria and yeast) and Sabouraud 2% glucose bouillon (mould) and added to the test substances in an amount of 192 μl per well. The test batches are incubated for 48 hours at 37° C. (bacteria and yeast) or for 5 days at 28° C. (mould). After incubation, the growth is determined by reference to the turbidity of the test batches (optical density) at 620 nm in a microplate reader. […]

The test system of assay [2] is Penicillium expansum ATCC 36200. The assay can be described thus: MIC in microtitre plates, Penicillium expansum. To be noted: ATCC36200, 120 h, Table 1, 5 days at 28° C., ≦20% growth. The procedure:
as §1, with “Mycological slant agar” for “casein-soybean flour-peptone bouillon”, “preculture” for “preparation”, “moulds. Penicillium expansum” for “the precultures of the test bacteria and yeast. Corynebacterium xerosis”, “36200” for “373”

The test system of assay [3] is Aspergillus niger ATCC 6275. The assay can be described thus: MIC in microtitre plates, Aspergillus niger. To be noted: Aspergillus niger, ATCC6275, 120 h; Table 1; ATCC 6275; 5 days at 28° C.; ≦20% growth; read-out: MIC Aspergillus niger. The procedure: (§2) Determination of Antimicrobial Activity in Accordance with the Microtitre Plate Method Determination of the Minimum Inhibitory Concentration (MIC value) in Microtitre Plates Mycological slant agar for the preculture of moulds. Aspergillus niger ATCC 6275 The test substances are predissolved in dimethyl sulfoxide (DMSO) and tested in a dilution series of 1:2. Bacteria and yeast are cultured overnight in CASO bouillon, the mould on mycological slant agar and rinsed off with 10 ml of 0.85% sodium chloride solution (+0.1% TritonX-100). All test organisms are adjusted to an organism count of 1-5*10^6 CFU/ml with 0.85% sodium chloride solution. The test substances are prepipetted into microtitre plates in an amount of 8 μl per well. Previously diluted test organism suspensions are diluted 1:100 in CASO bouillon (bacteria and yeast) and Sabouraud 2% glucose bouillon (mould) and added to the test substances in an amount of 192 μl per well. The test batches are incubated for 48 hours at 37° C. (bacteria and yeast) or for 5 days at 28° C. (mould). After incubation, the growth is determined by reference to the turbidity of the test batches (optical density) at 620 nm in a microplate reader. The minimum inhibitory concentration (MIC value) is the concentration of substance at which (compared with the growth of the control) an appreciable inhibition of the growth (≦20% growth) of the test organisms is ascertained. One microtitre plate is used for each test organism and substance concentration. All substances are tested in duplicate.

Assay [4] relates to Pseudomonas aeruginosa CIP A-22. Description: MIC in microtitre plates, Pseudomonas aeruginosa. To be noted: Pseudomonas aeruginosa, CIPA22; Table 1; CIP A-22; 48 hours at 37° C.; ≦20% growth; read-out: MIC Pseudomonas aeruginosa. The procedure:
as §2, with “casein-soybean flour-peptone bouillon” for “Mycological slant agar”, “preparation” for “preculture”, “the precultures of the test bacteria and yeast. Pseudomonas aeruginosa CIP A-22” for “moulds. Aspergillus niger ATCC 6275”

The structures appear in SMILES notation. Where only a bound is given, the exact number is not on record here.

In the case of `O=C(CC(=O)c1ccccc1O)c1ccco1` [Compound of formula (101)], the MIC in assay [1] was 50 µg/mL; in assay [2], 100 µg/mL; in assay [3], 100 µg/mL; in assay [4] it was over 1000 µg/mL.

The term MIC denotes the lowest concentration that inhibits growth of the organism.
